Test results as given in patent US11786132B2, “Systems and methods for predicting arousal to consciousness during general anesthesia and sedation” (The General Hospital Corporation, priority 2011, dated 2023).
Several values for one entry are separate records, joined by “and”; a condition that tells them apart may be missing. Equal values may be shown once. Read-outs that look alike come from different tables or passages of the source.

Key:
healthy volunteers [1] = system: healthy volunteers
Protocol: (§1) These studies were approved by the Human Research Committee at the Massachusetts General Hospital. All subjects provided informed consent and were American Society of Anesthesiology Physical Status I with Mallampati Class I airway anatomy. […] We administered a urine pregnancy test for each female subject to confirm that they were not pregnant. Before the start of the study, we required subjects to take nothing by mouth for at least 8 hours. […] We maintained each target effect-site concentration level for 14 min. […] Volunteers were instructed to close their eyes throughout the study to avoid eye-blink artifacts in the electroencephalogram. Volunteers were presented with auditory stimuli during the study and asked to respond by button presses to assess the level of conscious behavior. […] Verbal stimuli consisted either of the subject's name or a word randomized with an equal number of name or word stimuli at each level. The click train was delivered binaurally, with 40-Hz clicks in the left ear and 84-Hz clicks in the right ear. Subjects were instructed to press one button if they heard their name and to press the other button if they heard any other stimulus. Stimuli were recorded at a sampling rate of 44.1 kHz and were presented using Presentation software (Neurobehavioral Systems, Inc., Berkeley, Calif.) with ear-insert headphones (ER2; Etymotic Research, Elk Grove Village, Ill.) at ˜81 decibels peak sound pressure level. Button-press stimuli were recorded using a custom-built computer mouse with straps fitted to hold the first and second fingers in place over the mouse buttons. The mouse was also lightly strapped to the subject's hand using tape and an arterial line board to ensure that responses could be recorded accurately.
(§2) An anti-aliasing filter was applied and the EEG data was downsampled to 250 Hz before analysis. EEG signals were re-montaged to a nearest-neighbor Laplacian reference, using distances along the scalp surface to weigh neighboring electrode contributions.
(§3) First, 2-minute EEG segments were selected from all subjects during the awake, eyes closed baseline. Eye closure facilitates distinguishing between normal awake, eyes-closed occipital alpha oscillations and the frontal alpha oscillations associated with anesthesia induced altered arousal.
(§4) Electroencephalogram data segments were selected based on the behavioral response.
(§5) For each volunteer subject, TM electroencephalogram epochs were chosen that occurred within the first 2-minutes of the onset of this pattern. […] For each volunteer subject, PM electroencephalogram epochs were chosen that occurred within the first 2-minutes of the onset of this pattern.
The power spectral density, also referred to as the power spectrum or spectrum, quantifies the frequency distribution of energy or power within a signal. The spectrogram is a time-varying version of the spectrum. […] In these spectrograms, frequencies are arranged along the y-axis, and time along the x-axis, and power is indicated by color on a decibel (dB) scale. […] Spectra and spectrograms were computed using the multitaper method, implemented in the Chronux toolbox.
Group-level spectrograms were computed by taking the median across volunteers.

healthy volunteers [2] = system: healthy volunteers; remark: listed apart in the source
Protocol: as §1, §4, §5

[3] = system: patients undergoing light sedation with dexmedetomidine, sedation with propofol and general anesthesia with propofol; conditions: intraoperative frontal EEG
healthy volunteers [4] = system: healthy volunteers; remark: listed apart in the source
Protocol: as §1, §2, §3, §4, §5
The coherence quantifies the degree of correlation between two signals at a given frequency. […] The coherence Cxy(f) function between two signals x and y is defined as:
[formula] where Sxy(f) is the cross-spectrum between the signals x(t) and y(t), Sxx(f) is the power spectrum of the signal x(t) and Syy(f) is the power spectrum of the signal y(t). Similar to the spectrum and spectrogram, the coherence can be estimated as a time-varying quantity called the coherogram.

[5] = Plethysmography and blood gas experiments; conditions: in vivo
Text: For example, in accordance with one aspect of the present disclosure, methylphenidate (MPH) can be used as an inhibitor of dopamine and norepinephrine reuptake transporters and actively induces emergence from isoflurane general anesthesia. MPH can be used to restore consciousness, induce electroencephalogram changes consistent with arousal, and increase respiratory drive. The behavioral and respiratory effects induced by methylphenidate can be inhibited by droperidol, supporting the evidence that methylphenidate induces arousal by activating a dopaminergic arousal pathway.

[6] = system: patients undergoing general anesthesia; experiment: Intra-operative EEG during general anesthesia with sevoflurane as primary maintenance agent; assay type: in vivo, human
Protocol: In addition, to study the relationship between EEG dynamics in context of potential neural circuit mechanisms of an anesthetic vapor, intra-operative EEG were recorded from patients undergoing general anesthesia with sevoflurane as the primary maintenance agent, which is an ether derivative commonly used to maintain GA. […] Connectivity analysis was then performed on the EEG dynamics postulated to be involved in anesthesia-induce depression in consciousness. […] These observed similarities are consistent with present understanding of how EEG features relate to anesthesia-induced depression of consciousness, and provide a framework for further experimental studies on the neural circuit mechanisms of general anesthesia.

[7] = dexmedetomidine-induced unconsciousness
[8] = propofol-induced unconsciousness (PM)
[9] = propofol-induced unconsciousness (TM)
[10] = Propofol-induced unconsciousness (PM) epoch
[11] = Propofol-induced unconsciousness (TM) epoch

Q: Which results are given for Cc1cccc([C@H](C)c2cnc[nH]2)c1C [dexmedetomidine]?
A: slow oscillation power (healthy volunteers [1]; [7]): −0.4 dB; frequency range where EEG power was larger than propofol-induced unconsciousness (TM) (healthy volunteers [1]; dexmedetomidine-induced unconsciousness vs propofol TM, P<0.0005, TGTS): 0.7-10 Hz; frequency range of increased power in spectrogram compared to baseline (healthy volunteers [1]; dexmedetomidine-induced unconsciousness, FIGS. 9A, 9B): 2-15 Hz; frequency range where EEG power was lower than baseline (healthy volunteers [1]; dexmedetomidine-induced unconsciousness, beta/gamma, P<0.001, TGTS): 21.2-40 Hz; dex-spindle oscillation peak frequency (EEG power) (healthy volunteers [1]; dexmedetomidine-induced unconsciousness, mean±std): 12.9 Hz and ~13 Hz; Behavioral State (healthy volunteers [2]; Dexmedetomidine-induced unconsciousness epoch): Sedation; coherence of 0.1-1 Hz slow oscillations compared to propofol slow oscillations [3]: greater coherence; coherence of 8-12 Hz oscillations compared to propofol induced oscillations [3]: less coherence; coherence peak frequency (dex-spindle) (healthy volunteers [4]; [7]): 13.4 Hz and ~13 Hz; peak coherence (dex-spindle) (healthy volunteers [4]; [7]): 0.78±0.08; slow oscillation coherence compared to the awake-state (healthy volunteers [4]; [7]): non-significant decrease; frequency range where coherence was significantly larger than propofol-induced unconsciousness (PM) (healthy volunteers [4]; dexmedetomidine-induced unconsciousness vs propofol PM, FIG. 15B, P<0.0005, TGTC): 12.9-15.4 Hz; frequency range of decrease in coherence on coherogram (healthy volunteers [4]; dexmedetomidine-induced unconsciousness, FIG. 12B): 0.1-1 Hz; frequency range of significant differences in coherence vs baseline (healthy volunteers [4]; dexmedetomidine-induced unconsciousness, FIG. 12C, P<0.001, TGTC): 2.4-18.8 Hz; frequency range of increase in coherence on coherogram (healthy volunteers [4]; dexmedetomidine-induced unconsciousness, FIGS. 12A, 12B): 1-15 Hz

Q: Which results are given for CC(C)c1cccc(C(C)C)c1O [propofol]?
A: propofol effect site concentrations over which the signature is stably maintained (healthy volunteers [1]; PM pattern): 3 to 5 µg/mL; frequency range where PM oscillations were significantly larger than TM (healthy volunteers [1]; propofol PM vs TM, FIG. 10F, P<0.0003, TGTS): 0.1-13.4 Hz; alpha oscillation peak frequency (EEG power) (healthy volunteers [1]; [8]): 10.8 Hz; frontal alpha oscillation peak power (healthy volunteers [1]; [8]): 1.1 dB; slow oscillation power (healthy volunteers [1]; [8]): 13.2 dB; amplitude of slow oscillations, PM relative to TM and the baseline state (healthy volunteers [1]; propofol-induced unconsciousness (PM) vs (TM)): approximately 6 fold; amplitude of alpha oscillations, propofol PM relative to dexmedetomidine spindle oscillations (healthy volunteers [1]; propofol-induced unconsciousness (PM) vs dexmedetomidine): approximately 3.9 fold; frequency range where EEG power was significantly larger than dexmedetomidine-induced unconsciousness (healthy volunteers [1]; propofol-induced unconsciousness (PM) vs dexmedetomidine, P<0.0005, TGTS): 0.1-40 Hz; frequency range where EEG power was significantly larger than baseline (healthy volunteers [1]; propofol-induced unconsciousness (PM), FIG. 10E, P<0.0003, TGTS): 0.1-40 Hz; broad-band frequency range of increased power in spectrogram (healthy volunteers [1]; [9]): 1-25 Hz; slow oscillation power (healthy volunteers [1]; [9]): −2.5 dB; frequency range where EEG power was larger than dexmedetomidine-induced unconsciousness (healthy volunteers [1]; propofol-induced unconsciousness (TM) vs dexmedetomidine, P<0.0005, TGTS): 14.9-40 Hz; propofol effect site concentrations over which the signature is stably maintained (healthy volunteers [1]; trough max (TM) pattern): 1 to 2 µg/mL; time after loss of consciousness to which the trough-max pattern extends (healthy volunteers [1]; trough-max pattern): ~10 min; time before loss of consciousness at which the trough-max pattern begins (healthy volunteers [1]; trough-max pattern): ~20 min; Behavioral State (healthy volunteers [2]; [10]): General; Probability of Response to Verbal Stimuli (%) mean (±SD) (healthy volunteers [2]; [10]): 0%; Behavioral State (healthy volunteers [2]; [11]): Sedation; Probability of Response to Verbal Stimuli (%) mean (±SD) (healthy volunteers [2]; [11]): 91.5 (15.4) %; alpha oscillation coherence peak frequency (healthy volunteers [4]; [8]): 10.8 Hz; alpha oscillation peak coherence (healthy volunteers [4]; [8]): 0.89±0.05; slow oscillation coherence compared to baseline (healthy volunteers [4]; [8]): non-significant decrease; frequency range of decrease in coherence on coherogram (healthy volunteers [4]; propofol-induced unconsciousness (PM), FIG. 13C): 0.1-1 Hz; frequency range of significant increase in coherence vs baseline (healthy volunteers [4]; propofol-induced unconsciousness (PM), FIG. 13E, P<0.0003, TGTC): 3.9-15.1 Hz; alpha oscillation coherence peak frequency (healthy volunteers [4]; propofol-induced unconsciousness (PM), listed as Propofol): ~10 Hz; broad frequency range of increase in coherence on coherogram (healthy volunteers [4]; [9]): 1-25 Hz; frequency range where coherence was larger than dexmedetomidine-induced unconsciousness (healthy volunteers [4]; propofol-induced unconsciousness (TM) vs dexmedetomidine, FIG. 15A, P<0.0005, TGTC): 17.3-25.9 Hz; frequency ranges where oscillations were coherent vs baseline (healthy volunteers [4]; propofol-induced unconsciousness (TM), FIG. 13D, P<0.0003, TGTC): 10.7-15.4 Hz and 17.3-25.9 Hz

Q: For COC(=O)C(c1ccccc1)C1CCCCN1 (stereo not drawn) [methylphenidate], which minute ventilation [5] is on record?
A: increases minute ventilation

Q: With FCOC(C(F)(F)F)C(F)(F)F [sevoflurane] as the molecule, how does the “macroscopic EEG dynamics during GA induced unconsciousness” value [6] read?
A: closely resemble those of propofol
